Experimental data taken from patent US11318131B2, “Nanoliposomal irinotecan for use in treating small cell lung cancer” (Ipsen Biopharm Ltd., priority 2015, dated 2022).
Read-outs that look alike come from different tables or passages of the source.

Legend:
NCI-H1048 SCLC cell line [1] = assay: Cell growth inhibition kinetics, IncuCyte ZOOM System; format: cell-based; conditions: NCI-H1048, time-course of 88 hours
NCI-H1048 SCLC cell line [2] = tested on: NCI-H1048 SCLC cell line
Experimental: (§1) Irinotecan liposome injection was administered intravenously to mice bearing xenograft tumors. At 24 hours post administration, mice were sacrificed and tumors were harvested. Irinotecan and SN-38 in tumors were measured by high performance liquid chromatography (HPLC). Data were normalized to injected dose per tumor weight. […] Cell growth inhibition kinetics of SN-38 in the cell lines was determined using IncuCyte® ZOOM System.

DMS114 SCLC cell line = tested on: DMS114 SCLC cell line
Experimental: as §1

SW1271 SCLC cell line = assay: SN-38 in vitro growth and viability assay; format: cell-based
DMS53 SCLC cell line = assay: SN-38 in vitro growth and viability assay; format: cell-based
DMS-114 SCLC cell line = assay: Cell growth inhibition kinetics, IncuCyte ZOOM System; format: cell-based; conditions: DMS-114, time-course of 88 hours
DMS-114 xenograft [3] = assay: DMS-114 xenograft, topotecan-treated tumors; conditions: nal-IRI 16 mg/kg; irinotecan 33 mg/kg
NCI-H1048 xenograft [4] = assay: NCI-H1048 SCLC xenograft, treatment naive; conditions: for anti-tumor activity / response (in words): NCI-H1048, irinotecan 33 mg/kg IV, weekly
DMS-114 xenograft [5] = assay: DMS-114 SCLC xenograft, NOD/SCID mice
NCI-H1048 xenograft [6] = assay: Second line SCLC model: NCI-H1048 after carboplatin plus etoposide; format: in vivo; conditions: weekly: nal-IRI 16 mg/kg IV; irinotecan 33 mg/kg IV; topotecan 1.66 mg/kg/wk IP days 1 and 2
Experimental: As described below, mice bearing NCI-H1048 SCLC tumors were treated with a carboplatin plus etoposide, a first line regimen in SCLC. Once the tumors escaped growth control by carboplatin plus etoposide, mice were randomized to either continue treatment with carboplatin plus etoposide or switch to second line treatment with either irinotecan liposome injection, non-liposomal irinotecan or topotecan.
NOD/SCID mice with NCIH1048 SCLC xenograft tumors were treated weekly with the combination of 30 mg/kg carboplatin plus 25 mg/kg etoposide. […] . […] . […] . FIG. 21B is a survival graph for mice on each of the treatments.

[7] = tested on: small cell lung cancer (SCLC); conditions: second line SCLC, cited from earlier work; for grade 3 or greater diarrhea / grade 3 or greater neutropenia rates / overall response rates / overall survival (OS) / progression free survival (PFS): topotecan 1.5 mg/m^2 days 1-5 every 3 weeks, non-liposomal irinotecan 300 mg/m^2 every 3 weeks; for overall survival: certain regimens
DMS-53 xenograft = assay: DMS-53 SCLC xenograft; conditions: nal-IRI 16 mg/kg IV, topotecan 0.83 mg/kg/wk days 1-2, weekly
[8] = nal-IRI 16 mg/kg IV, topotecan 0.83 mg/kg/wk days 1-2 IP

CCc1c2c(nc3ccc(O)cc13)-c1cc3c(c(=O)n1C2)COC(=O)[C@]3(O)CC [SN-38]
concentration with cell killing after prolonged incubation times (NCI-H1048 SCLC cell line [1]): ≥ 10 nM | concentration with effective cell growth inhibition (NCI-H1048 SCLC cell line [1]): 1 to 10 nM | decrease in cell viability (NCI-H1048 SCLC cell line [2]): > 90% | decrease in cell viability (DMS114 SCLC cell line): > 90% | decrease in cell viability (SW1271 SCLC cell line): > 90% | decrease in cell viability (DMS53 SCLC cell line): > 90% | concentration with cell killing after prolonged incubation times (DMS-114 SCLC cell line): ≥ 10 nM | concentration with effective cell growth inhibition (DMS-114 SCLC cell line): 1 to 10 nM

CCc1c2c(nc3ccc(OC(=O)N4CCC(N5CCCCC5)CC4)cc13)-c1cc3c(c(=O)n1C2)COC(=O)[C@]3(O)CC [non-liposomal irinotecan, (S)-4,11-diethyl-3,4,12,14-tetrahydro-4-hydroxy-3,14-dioxo1H-pyrano[3′,4′:6,7]-indolizino[1,2-b]quinolin-9-yl-[1,4′bipiperidine]-1′-carboxylate]
responsiveness of topotecan-treated DMS114 tumors (DMS-114 xenograft [3]): not | anti-tumor activity / response (in words) (NCI-H1048 xenograft [4]; [8]): progress after initially responding to treatment | anti-tumor activity / response (in words) (DMS-114 xenograft [5]; DMS-114, nal-IRI 16 mg/kg IV, irinotecan 33 mg/kg IV, topotecan 0.83 mg/kg/wk days 1-2 IP, weekly): became less responsive after 2-3 cycles | anti-tumor activity in carboplatin plus etoposide-treated SCLC tumors (in words) (NCI-H1048 xenograft [6]): active but after 3rd cycle some tumors are trending regrowth | grade 3 or greater diarrhea [7]: 0-13% | grade 3 or greater neutropenia rates [7]: 21-23% | overall response rates [7]: 0-33% | overall survival (OS) [7]: 4.6-6.9 months | progression free survival (PFS) [7]: 1.7-2.8 months

CC[C@@]1(O)C(=O)OCc2c1cc1n(c2=O)Cc2cc3c(CN(C)C)c(O)ccc3nc2-1 [topotecan]
mice with complete tumor regressions after 4 cycles of treatment (NCI-H1048 xenograft [4]; Example 11, nal-IRI 16 mg/kg salt q1w, topotecan 0.83 mg/kg/week Day 1-2): 0 out of 7 | mice with complete regressions of their tumors (NCI-H1048 xenograft [4]; Example 15, n=10, nal-IRI 16 mg/kg IV, topotecan 0.83 mg/kg/wk days 1-2 IP): 0 out of 10 | anti-tumor activity / response (in words) (NCI-H1048 xenograft [4]; [8]): limited tumor growth control | anti-tumor activity of bolus (day 1) compared to fractionated (days 1 & 2) dosing (DMS-114 xenograft [5]; same dose intensity, FIG. 15 (DMS-114, NCI-H1048)): less anti-tumor activity | anti-tumor activity in carboplatin plus etoposide-treated SCLC tumors (in words) (NCI-H1048 xenograft [6]): seems to be active after 1-2 cycles but progress quickly after 3rd dose | anti-tumor activity / response (in words) (DMS-53 xenograft): limited tumor growth control | overall survival ([7]; all patients): 7.8 months | overall survival ([7]; refractory patients): 5.7 months | overall survival ([7]; sensitive patients): 9.9 months | grade 3 or greater diarrhea [7]: less than 5% | grade 3 or greater neutropenia rates [7]: 28-88% | overall response rates [7]: 7-24% | overall survival (OS) [7]: 5.0-8.9 months | progression free survival (PFS) [7]: 3.1-3.7 months
